In patent EP4729053A1, “SOLID DISPERSION OF P2X4 INHIBITOR, AND PREPARATION METHOD THEREFOR AND USE THEREOF” (Wuhan Createrna Science and Technology Co.,Ltd., priority 2023, dated 2024):

Key:
[1] = Solubilization test of compound 1 with surfactants in FaSSIF; format: physicochemical; settings: for Concentration of API in vehicle: FaSSIF (pH 6.5), 37°C
Procedure: 50 mg of compound 1 was weighed into 5 mL of FaSSIF medium containing 5 mg of different surfactants (target concentration of API (compound 1): 10 mg/mL). The mixture was shaken at 500 rpm and 37°C. 0.5 mL each of the suspension samples was taken at 0.5 hours, 1 hour, 2 hours, and 4 hours, respectively, centrifuged at 14,000 rpm for 5 minutes, and the supernatant was diluted and analyzed by HPLC. Table 1: Solubility results of compound 1 in FaSSIF containing 10% of surfactant by weight

[2] = Pharmacokinetic study in rats, intragastric administration; format: in vivo; settings: rat, plasma, po, Male SD rats, i.g., vehicle 5% Solutol
Procedure: SPF-grade male SD rats weighing 160 to 320 g were divided into 2 groups, with 3 rats per group [Source: Beijing Vital River Laboratory Animal Technology Co., Ltd., Certificate No.: 1103242011040898].
Formulation and dosing: According to the drug concentration and dosing requirements in Table 15 below, the API was accurately weighed and added to the required volume of 5% Solutol. The mixture was vortexed for 2 minutes, then sonicated for 10 minutes, and stirred for 1 hour before administration. Table 15: Formulation and dosing regimen for API pharmacokinetic study
SPF-grade male SD rats weighing 160 to 320 g were divided into 6 groups, with 3 rats per group [Source: Beijing Vital River Laboratory Animal Technology Co., Ltd., Certificate No.: 110011210113195883 (male)].
Formulation and dosing: 80 mg of the corresponding sample in the table below was accurately weighed, dispersed in the required volume of pure water, vortexed for 5 minutes, and administered intragastrically (i.g.). The experimental dosing was scaled proportionally based on animal body weight and dosing concentration.
After administration to the SD rats in each group of Experimental Preparation 1 and Experimental Preparation 2, approximately 0.2 to 0.3 mL of blood samples were collected from the orbital venous plexus at 0.167, 0.5, 1, 2, 3, 4, 6, 8, 10, and 24 hours post-dosing, and transferred to an anticoagulant EP tube (containing 4 µL of EDTA-K2, 375 mg/mL), which was gently inverted three times, stored in an ice box (no more than 30 minutes), centrifuged at 3500 × g for 10 minutes at 4°C, and plasma supernatant was transferred to a labeled EP tube. Hemolysis was observed and recorded, followed by bioanalytical testing.
Sample pretreatment: 40 µL of sample was mixed with 160 µL of acetonitrile containing 0.1% FA and 200 ng/mL mixed internal standard to precipitate proteins. The mixture was vortexed thoroughly and centrifuged at 13,000 rpm for 10 minutes at 4°C.
110 µL of the supernatant was transferred to another 96-well deep-well plate, followed by addition of 110 µL of a mixture of methanol and water (1:3, v:v) containing 0.1% FA. The mixture was shaken for 10 minutes and analyzed using an LC-MS/MS system. The system employed a Sciex Exion LC AD high-performance liquid chromatography system with an XBridge BEH C18 (2.1 × 50 mm, 2.5 µm) column for gradient elution and an AB Sciex Qtrap 4500 mass spectrometer for analysis. The mass spectrometer employed an electrospray ionization (ESI) source in positive ion mode to monitor Tolbutamide, with precursor ion to product ion transitions with mass-to-charge ratios (m/z) of 415.1→263.1 and 271.1→155, respectively.
Data were analyzed using WinNonlin (version 5.2.1, Pharsight, Mountain View, CA) with a non-compartmental model to obtain PK parameters (Cmax, Tmax, T1/2, AUClast, etc.). Table 15: Pharmacokinetic data of some solid dispersions

For `NS(=O)(=O)c1cc(NC(=O)Cc2ccccc2Cl)cc2nn(C(F)F)cc12` [compound 1], the “Concentration of API in vehicle” value ([1]; Cremophor EL 5 mg, 0.5 h) was 1574.3 µg/mL, the “Concentration of API in vehicle” value ([1]; Cremophor EL 5 mg, 1 h) was 1604.3 µg/mL and the “Concentration of API in vehicle” value ([1]; Cremophor EL 5 mg, 2 h) was 1538.6 µg/mL. For the same molecule, the “Concentration of API in vehicle” value ([1]; Cremophor EL 5 mg, 4 h) was 1508.2 µg/mL, the “Concentration of API in vehicle” value ([1]; Cremophor RH40 5 mg, 0.5 h) was 1583.3 µg/mL and the “Concentration of API in vehicle” value ([1]; Cremophor RH40 5 mg, 1 h) was 1604.5 µg/mL. The “Concentration of API in vehicle” value ([1]; Cremophor RH40 5 mg, 2 h) was 1567.0 µg/mL, the “Concentration of API in vehicle” value ([1]; Cremophor RH40 5 mg, 4 h) was 1539.4 µg/mL and the “Concentration of API in vehicle” value ([1]; Poloxamer 188 5 mg, 0.5 h) was 115.6 µg/mL. The “Concentration of API in vehicle” value ([1]; Poloxamer 188 5 mg, 1 h) was 123.3 µg/mL, the “Concentration of API in vehicle” value ([1]; Poloxamer 188 5 mg, 2 h) was 104.0 µg/mL and the “Concentration of API in vehicle” value ([1]; Poloxamer 188 5 mg, 4 h) was 93.9 µg/mL. For the same molecule, the “Concentration of API in vehicle” value ([1]; Poloxamer 407 5 mg, 0.5 h) was 838.4 µg/mL, the “Concentration of API in vehicle” value ([1]; Poloxamer 407 5 mg, 1 h) was 860.7 µg/mL and the “Concentration of API in vehicle” value ([1]; Poloxamer 407 5 mg, 2 h) was 842.0 µg/mL. The “Concentration of API in vehicle” value ([1]; Poloxamer 407 5 mg, 4 h) was 796.7 µg/mL, the “Concentration of API in vehicle” value ([1]; SLS 5 mg, 0.5 h) was 614.0 µg/mL and the “Concentration of API in vehicle” value ([1]; SLS 5 mg, 1 h) was 622.0 µg/mL. For the same molecule, the “Concentration of API in vehicle” value ([1]; SLS 5 mg, 2 h) was 639.0 µg/mL, the “Concentration of API in vehicle” value ([1]; SLS 5 mg, 4 h) was 652.0 µg/mL and the “Concentration of API in vehicle” value ([1]; Solutol HS15 5 mg, 0.5 h) was 1465.9 µg/mL. For the same molecule, the “Concentration of API in vehicle” value ([1]; Solutol HS15 5 mg, 1 h) was 1501.6 µg/mL, the “Concentration of API in vehicle” value ([1]; Solutol HS15 5 mg, 2 h) was 1480.7 µg/mL and the “Concentration of API in vehicle” value ([1]; Solutol HS15 5 mg, 4 h) was 1456.3 µg/mL. For the same molecule, the “Concentration of API in vehicle” value ([1]; Tween 80 5 mg, 0.5 h) was 899.3 µg/mL, the “Concentration of API in vehicle” value ([1]; Tween 80 5 mg, 1 h) was 893.1 µg/mL and the “Concentration of API in vehicle” value ([1]; Tween 80 5 mg, 2 h) was 888.5 µg/mL. For the same molecule, the “Concentration of API in vehicle” value ([1]; Tween 80 5 mg, 4 h) was 886.6 µg/mL, the “Concentration of API in vehicle” value ([1]; VE-TPGS 5 mg, 0.5 h) was 2113.7 µg/mL and the “Concentration of API in vehicle” value ([1]; VE-TPGS 5 mg, 1 h) was 2122.7 µg/mL. The “Concentration of API in vehicle” value ([1]; VE-TPGS 5 mg, 2 h) was 2089.3 µg/mL, the “Concentration of API in vehicle” value ([1]; VE-TPGS 5 mg, 4 h) was 2077.5 µg/mL and the “Concentration of API in vehicle” value ([1]; no surfactant, 0.5 h) was 33.9 µg/mL. The “Concentration of API in vehicle” value ([1]; no surfactant, 1 h) was 22.9 µg/mL, the “Concentration of API in vehicle” value ([1]; no surfactant, 2 h) was 15.2 µg/mL and the “Concentration of API in vehicle” value ([1]; no surfactant, 4 h) was 14.9 µg/mL. For the same molecule, the “solubility of compound 1” value ([1]; with surfactants SLS, Cremophor EL, Cremophor RH40, VE-TPGS, Tween 80, Poloxamer 407, and Solutol HS15) was “significantly improved”, the AUC(0-t) ([2]; 30.00 mg/kg) was 10800 ng·h/mL and the Cmax ([2]; 30.00 mg/kg) was 2.76 µg/mL. For the same molecule, the Tmax ([2]; 30.00 mg/kg) was 0.67 h, the half-life ([2]; 30.00 mg/kg) was 5.31 h and the AUC(0-t) ([2]; 300.00 mg/kg) was 14700 ng·h/mL. It also gave a Cmax ([2]; 300.00 mg/kg) of 2.36 µg/mL, a Tmax ([2]; 300.00 mg/kg) of 1 h and a half-life ([2]; 300.00 mg/kg) of 13.8 h.
